Columns and labels:
[1] = target: recombinant human liver GK (Homo sapiens, UniProt P35557); assay: biochemical; set-up: Emax: dose or concentration left out as unconfirmed
Excerpt: The glucokinase activity may be determined not by directly measuring glucose-6-phosphate but by measuring the level of Thio-NADH, which is produced when a reporter enzyme, glucose-6-phosphate dehydrogenase produces phosphogluconolactone from glucose-6-phosphate, and based on the level, the degree of glucokinase activity of the compound tested may be determined.
In this assay, used was a recombinant human liver GK, which was expressed by E. coli as a FLAG fusion protein therein and was purified by […] M2 AFFINITY GEL (Sigma).
69 μl of an assay buffer (25 mM Hepes Buffer/pH=7.2, 2 mM MgCl2, 1 mM ATP, 0.5 mM TNAD, 1 mM dithiothreitol) was put into the plate, and 1 μl of a DMSO solution of the compound or DMSO alone as a control was added thereto. Next, 20 μl of an enzyme mixture (FLAG-GK, 20 U/ml G6PDH) cooled in ice was added to it, and 10 μl of a substrate, 25 mM glucose was added to it, and the reaction was initiated (final glucose concentration=2.5 mM).
The OD level of the DMSO control was set as 100%; and the OD level of the test compound at different concentrations was determined. From the OD level at each concentration, Emax (%) and EC50 (μM) were computed and used as the index of the GK-activating potency of the compound.

[2] = Solid-state properties of the crystal compared to the amorphous form (from thermogravimetric analysis and X-ray powder diffraction); assay type: physicochemical; conditions: compared to amorphous form of the free benzamide of patent document 1
Procedure: (§1) A Perkin Elmer model TG 7 or equivalent instrument is used. Experiments are performed under a flow of nitrogen and using a heating rate 10° C./min to a maximum temperature of 500° C. Approximately 10 mg of sample is added to the platinum pan. Weight/temperature data are collected automatically by the instrument. Compound 9 doesn't show obvious weight loss until 180° C.
Obtain the X-ray diffraction pattern of a finely-powdered, randomly orientated sample, using copper K alpha X-radiation from 4 to 40 theta.
Bruker powder X-ray diffractometer D8ADVANCE (at 2 kW) (bull car ray X id bull car ray X id Co., Ltd.) is used, and a powder X-ray diffraction experiment was done.

[3] = Thermogravimetric analysis; assay type: physicochemical; conditions: flow of nitrogen, heating rate 10° C./min
Procedure: as §1

Sequence of recombinant human liver GK (P35557 1-466 isoform P35557-2): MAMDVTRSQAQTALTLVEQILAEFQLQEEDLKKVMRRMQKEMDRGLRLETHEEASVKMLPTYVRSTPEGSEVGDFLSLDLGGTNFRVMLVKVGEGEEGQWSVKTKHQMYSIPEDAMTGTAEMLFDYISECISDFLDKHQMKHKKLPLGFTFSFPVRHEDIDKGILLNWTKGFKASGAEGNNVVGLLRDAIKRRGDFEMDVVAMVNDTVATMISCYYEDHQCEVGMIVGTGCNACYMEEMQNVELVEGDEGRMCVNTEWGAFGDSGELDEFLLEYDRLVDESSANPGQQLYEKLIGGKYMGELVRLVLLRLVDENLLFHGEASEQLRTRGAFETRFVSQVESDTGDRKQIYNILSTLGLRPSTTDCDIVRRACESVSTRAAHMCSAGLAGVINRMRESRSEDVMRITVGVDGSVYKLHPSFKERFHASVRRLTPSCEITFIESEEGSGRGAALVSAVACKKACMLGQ

EC50 [1]: 30 nM | Emax [1]: 828% | hygroscopicity [2]: less hygroscopicity | physical stability [2]: stability physically | temperature until which no obvious weight loss is shown [3]: ≥ 180 °C
Compound: CCS(=O)(=O)c1ccc(Oc2cc(O[C@@H](C)CO)cc(C(=O)Nc3ccn(C)n3)c2)cn1.CS(=O)(=O)O [3-(6-ethanesulfonylpyridin-3-yloxy)-5-((1S)-2-hydroxy-1-methyl-ethoxy)-N-(1-methyl-1H-pyrazol-3-yl)benzamide methanesulfonate]

— patent publication US20100222394A1, “METHOD FOR PRODUCING PYRAZOL-3-YL-BENZAMIDE DERIVATIVE” (priority 2007, published 2010)
